Data reported in patent US9353089B2, “Compositions and methods for the treatment of malaria” (Saint Louis University, priority 2013, dated 2016).
Read-outs that look alike come from different tables or passages of the source.

How the values were obtained:
[1] = test system: Plasmodium falciparum 3D7 (CQ-sensitive); experiment: In vitro antimalarial assay (malaria SYBR Green I-based fluorescence, MSF), 3D7; assay type: cell-based
Protocol: Stock solutions of each test drug were prepared in DMSO at a concentration of 20 mM. The drug solutions were serially diluted with culture medium and distributed to asynchronous parasite cultures on 96-well plates in quadruplicate in a total volume of 100 μL to achieve 0.5% parasitemia with a 2% hematocrit in a total volume of 100 pt. […] After incubation, 100 μL of lysis buffer with 0.2 μL/mL SYBR Green I was added to each well.
Antimalarial potency of compounds was determined by this technique for both Plasmodium falciparum 3D7 (CQ-sensitive) and Dd2 (multi-drug resistant) strains.

[2] = target: Plasmepsin-2 (PM-2; Plm II) (Plasmodium falciparum (isolate HB3), UniProt P46925); experiment: Plasmepsin-2 enzyme inhibition assay; assay type: biochemical
Protocol: Plasmepsin-2 (PM-2; Plm II) and Plasmepsin (PM-4; Plm IV) expression and purification was performed following the published protocols (Istvan E S and Goldberg D E, 2005). The final purified protein was activated by diluting the protein to 0.3 mg/mL in activating buffer (0.1 M citrate pH 4.5, 0.1% Tween-20, 50 mM dithiothreitol) and incubated at room temperature for 40 min, then the activated enzyme was diluted in assay buffer (50 mM sodium acetate pH 4.7, 0.01% Tween-20). The enzymatic inhibition reaction was performed in 384 well plates with a total volume of 20 μl. 10 μl of diluted PM-2 or PM-4 enzyme was added to the 384-well plate except blank wells (blank wells add 10 μL of assay buffer) and 20 nL of serials of diluted 1000× compounds were added to the wells with 520 Echo® Liquid Handling System (Labcyte Inc.). 10 μL PM-2 peptide substrate (AnaSpec, Cat#, 62050) with assay buffer was then added to final concentration of 20 μM to start the reaction. After incubation the reaction at room temperature for 60 min, the fluorescence intensity at Ex/Em=360 nm/535 nm was measured using EnVision multilabel plate reader (Perkin-Elmer). The IC50 values were obtained using Graph Pad Prism 4 and are reported in Tables 8 and 9 below as PM-2 IC50 values.

[3] = 3D7, Table 10, read-out: Pf3D7 IC50
[4] = 3D7, Table 13, read-out: 3D7 IC50
[5] = 3D7, Table 11, read-out: Pf 3D7 IC50

Chain of Plasmepsin-2 (PM-2; Plm II) (P46925 125-453 limits assumed): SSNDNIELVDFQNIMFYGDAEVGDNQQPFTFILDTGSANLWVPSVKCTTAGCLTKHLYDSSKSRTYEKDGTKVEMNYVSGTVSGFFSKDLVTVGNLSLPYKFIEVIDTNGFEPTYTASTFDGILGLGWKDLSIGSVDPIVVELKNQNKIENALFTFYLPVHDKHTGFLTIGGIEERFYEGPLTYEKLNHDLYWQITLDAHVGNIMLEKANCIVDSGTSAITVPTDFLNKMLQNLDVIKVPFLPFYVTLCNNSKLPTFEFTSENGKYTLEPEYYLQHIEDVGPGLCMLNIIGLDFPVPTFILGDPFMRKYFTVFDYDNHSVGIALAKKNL

SMILES | IC50 [1, 4] [µM] | IC50 ([2]; Table 13, read-out: PM-2 IC50) [nM] | other results
COc1ccc(C2(c3ccc(OC)cc3)NC(=S)N(C3CCCCC3)C2=O)cc1 |  |  | IC50 ([1]; 3D7, Table 8, read-out: Pf 3D7 IC50): > 5 µM; IC50 ([2]; Table 8, read-out: PM-II IC50): > 10000 nM
N=C1NC(c2ccccc2)(c2ccccc2)C(=O)N1Cc1ccccc1 [Example 102, 3-benzyl-2-imino-5,5-diphenyl-imidazolidin-4-one] | 8.29 | 33.1 | IC50 [1, 3]: 8.29 µM
COc1cccc(C2(c3cccc(OC)c3)NC(=N)N(Cc3ccccc3)C2=O)c1 [Example 105, 3-benzyl-2-imino-5,5-bis(3-methoxy-phenyl)imidazolidin-4-one] | 6.31 | 57.4 | 
CN1C(=N)NC(c2ccccc2)(c2cccc(-c3cccnc3)c2)C1=O (stereo not shown) [Example 135, 2-imino-3-methyl-5-phenyl-5-[3-(pyridin-3-yl)phenyl]-imidazolidin-4-one] |  |  | IC50 ([2]; Table 12, read-out: PM-2 IC50): 1010 nM
COc1ccc(C2(c3ccccc3)NC(=N)N(C3CCCCC3)C2=O)cc1 (stereo not shown) [Example 141, 3-cyclohexyl-2-imino-5-(4-methoxyphenyl)-5-phenylimidazolidin-4-one] | 0.533 | 10.6 | IC50 [1, 5]: 0.533 µM
N=C1NC(c2ccccc2)(c2ccccc2)C(=O)N1C1CC1 [Example 142, 3-cyclopropyl-2-imino-5,5-diphenylimidazolidin-4-one] | 10.8 | 1790 | 
COc1cccc(C2(c3ccccc3)NC(=N)N(C3CCCCC3)C2=O)c1 (stereo not shown) [Example 153, 3-cyclohexyl-2-imino-5-(3-methoxyphenyl)-5-phenylimidazolidin-4-one] | 0.917 | 24.9 | IC50 [1, 5]: 0.917 µM
N=C1NC(c2ccc(Br)cc2)(c2ccc(Br)cc2)C(=O)N1C1CCCCC1 [Example 154, 5,5-bis(4-bromophenyl)-3-cyclohexyl-2-iminoimidazolidin-4-one] | 1.48 | 9.9 | 
N=C1NC(c2ccc(Cl)cc2)(c2ccc(Cl)cc2)C(=O)N1C1CCCCC1 [Example 155, 5,5-bis(4-chlorophenyl)-3-cyclohexyl-2-iminoimidazolidin-4-one] | 1.07 | 6 | IC50 [1, 5]: 1.07 µM
Cc1ccc(C2(c3ccc(C)cc3)NC(=N)N(C3CCCCC3)C2=O)cc1 [Example 156, 3-cyclohexyl-2-imino-5,5-bis(4-methylphenyl)-imidazolidin-4-one] | 1.26 | 14 | IC50 [1, 5]: 1.26 µM
CCOc1ccc(C2(c3ccc(OCC)cc3)NC(=N)N(C3CCCCC3)C2=O)cc1 [Example 157, 3-cyclohexyl-5,5-bis(4-ethoxyphenyl)-2-iminoimidazolidin-4-one] | 0.466 | 6.87 | IC50 [1, 5]: 0.466 µM
COc1ccc(C2(c3ccc(OC)cc3)NC(=N)N(C3CCCC3)C2=O)cc1 [Example 159, 3-cyclopentyl-2-imino-5,5-bis(4-methoxyphenyl)-imidazolidin-4-one] | 0.611 | 25.1 | IC50 [1, 3]: 0.611 µM
COc1ccc(C2(c3ccc(OC)cc3)NC(=N)N(Cc3ccccc3)C2=O)cc1 [Example 162, 3-benzyl-2-imino-5,5-bis(4-methoxyphenyl)-imidazolidin-4-one] | 0.855 | 7.3 | IC50 [1, 3]: 0.855 µM
COc1cccc(C2(c3cccc(OC)c3)NC(=N)N(C3CC3)C2=O)c1 [Example 167, 3-cyclopropyl-2-imino-5,5-bis(3-methoxyphenyl)-imidazolidin-4-one] | 9.32 | 2830 | 
COc1cccc(C2(c3cccc(OC)c3)NC(=N)N(C3CCCC3)C2=O)c1 [Example 168, 3-cyclopentyl-2-imino-5,5-bis(3-methoxyphenyl)-imidazolidin-4-one] | 1.09 | 110 | 
COc1cccc(C2(C3CC3)NC(=N)N(C3CCOCC3)C2=O)c1 (stereo not shown) [Example 499, 5-cyclopropyl-2-imino-5-(3-methoxyphenyl)-3-(tetrahydro-2H-pyran-4-yl)imidazolidin-4-one] | 1.39 |  | 
N=C1NC(c2ccccc2Cl)(C2CC2)C(=O)N1C1CCOCC1 (stereo not shown) [Example 500, 5-(2-chlorphenyl)-5-cyclopropyl-2-imino-3-(tetrahydro-2H-pyran-4-yl)imidazolidin-4-one] | 2.36 |  | 
COc1cc(C2(C3CCCCC3)NC(=N)N(C3CCOCC3)C2=O)ccc1Cl (stereo not shown) [Example 501, 5-(4-chloro-3-methoxyphenyl)-5-cyclohexyl-2-imino-3-(tetrahydro-2H-pyran-4-yl)imidazolidin-4-one] | 1.54 |  | 

SMILES | IC50 [1, 4] [µM] | IC50 ([2]; Table 13, read-out: PM-2 IC50) [nM] | other results
N=C1NC(c2cccc(-c3cccnc3)c2)(C2CC2)C(=O)N1C1CCCCC1 (stereo not shown) [Example 512, 3-cyclohexyl-5-cyclopropyl-2-imino-5-(3-(pyridin-3-yl)phenyl)imidazolidin-4-one] |  |  | IC50 ([1]; 3D7, read-out: 3D7 IC50 (μM), Table 13): 0.38 µM
N=C1NC(c2cccc(-c3cncc(Cl)c3)c2)(C2CC2)C(=O)N1C1CCCCC1 (stereo not shown) [Example 514, 5-(3-(5-chloropyridin-3-yl)phenyl)-3-cyclohexyl-5-cyclopropyl-2-iminoimidazolidin-4-one] | 0.97 |  | 
CC#Cc1cncc(-c2cccc(C3(C4CC4)NC(=N)N(C4CCCCC4)C3=O)c2)c1 (stereo not shown) [Example 515, 3-cyclohexyl-5-cyclopropyl-2-imino-5-(3-(5-(prop-1-yn-1-yl)pyridin-3-yl)phenyl)imidazolidin-4-one] | 0.81 |  | 
N=C1NC(c2cccc(-c3cncc(Cl)c3)c2)(C2CCCCC2)C(=O)N1C1CCOCC1 (stereo not shown) [Example 516, 5-(3-(5-chloropyridin-3-yl)phenyl)-5-cyclohexyl-2-imino-3-(tetrahydro-2H-pyran-4-yl)imidazolidin-4-one] | 0.28 |  | 
COc1ccccc1C1(C2CC2)NC(=N)N(C2CCOCC2)C1=O (stereo not shown) [Example 518, 5-cyclopropyl-2-imino-5-(2-methoxyphenyl)-3-(tetrahydro-2H-pyran-4-yl)imidazolidin-4-one] | 5.32 |  | 
N=C1NC(c2cccc(O)c2)(C2CC2)C(=O)N1C1CCOCC1 (stereo not shown) [Example 519, 5-cyclopropyl-5-(3-hydroxyphenyl)-2-imino-3-(tetrahydro-2H-pyran-4-yl)imidazolidin-4-one] | 5.65 |  | 
N=C1NC(c2ccc(O)cc2)(c2ccc(O)cc2)C(=O)N1C1CCCCC1 [Example 547, 3-cyclohexyl-5,5-bis(4-hydroxyphenyl)-2-iminoimidazolidin-4-one] | 0.85 |  | 
N=C1NC(c2cccc(O)c2)(C2CC2)C(=O)N1C1CCCCC1 (stereo not shown) [Example 549, 3-cyclohexyl-5-cyclopropyl-5-(3-hydroxyphenyl)-2-iminoimidazolidin-4-one] | 1.33 |  | 
N=C1NC(c2ccc(O)cc2)(c2ccc(O)cc2)C(=O)N1C1CCOCC1 [Example 550, 5,5-bis(4-hydroxyphenyl)-2-imino-3-(tetrahydro-2H-pyran-4-yl)imidazolidin-4-one] | 2.48 |  | 
N=C1NC(c2ccc(O)cc2)(C2CC2)C(=O)N1C1CCCCC1 (stereo not shown) [Example 551, 3-cyclohexyl-5-cyclopropyl-5-(4-hydroxyphenyl)-2-iminoimidazolidin-4-one] | 0.78 |  | 
COc1ccc(C2(c3ccc(OC)cc3)NC(=N)N(C3CCN(Cc4cc(Cl)ccc4O)CC3)C2=O)cc1 [Example 569, 3-(1-(5-chloro-2-hydroxybenzyl)piperidin-4-yl)-2-imino-5,5-bis(4-methoxyphenyl)-imidazolidin-4-one] | 0.45 |  | 
N=C1NC(c2cccc(Oc3ccccc3)c2)(C2CC2)C(=O)N1C1CCCCC1 (stereo not shown) [Example 570, 3-cyclohexyl-5-cyclopropyl-2-imino-5-(3-phenoxyphenyl)imidazolidin-4-one] | 2.87 |  | 
COc1ccc(C2(c3ccc(OC)cc3)NC(=N)N(C3CCN(Cc4ccccc4O)CC3)C2=O)cc1 [Example 571, 3-(1-(2-hydroxybenzyl)piperidin-4-yl)-2-imino-5,5-bis(4-methoxyphenyl)-imidazolidin-4-one] | 0.4 |  | 
N=C1NC(c2ccccc2O)(C2CC2)C(=O)N1C1CCCCC1 (stereo not shown) [Example 573, 3-cyclohexyl-5-cyclopropyl-5-(2-hydroxyphenyl)-2-iminoimidazolidin-4-one] | > 20 |  | 
N=C1NC(c2ccc(Cl)cc2)(C2CCCCC2)C(=O)N1C1CCOCC1 (stereo not shown) [Example 574, 5-(4-chlorophenyl)-5-cyclohexyl-2-imino-3-(tetrahydro-2H-pyran-4-yl)imidazolidin-4-one] | 0.27 |  | 
N=C1NC(c2ccc(Cl)cc2)(C2CCCCC2)C(=O)N1C1CCCCC1 (stereo not shown) [Example 575, 5-(4-chlorophenyl)-3,5-dicyclohexyl-2-iminoimidazolidin-4-one] | 1.09 |  | 
N=C1NC(c2ccc(Cl)cc2)(C2CC2)C(=O)N1C1CCCCC1 (stereo not shown) [Example 577, 5-(4-chlorophenyl)-3-cyclohexyl-5-cyclopropyl-2-iminoimidazolidin-4-one] | 1.67 |  | 
CCC(CN1C(=N)NC(c2ccccc2)(c2ccccc2)C1=O)c1ccccc1 (stereo not shown) [drawing 195] |  |  | IC50 ([1]; 3D7, read-out: Pf3D7 IC50 (μM), Table 10): 2.76 µM
